Several values for one entry are separate records, joined by “and”; a condition that tells them apart may be missing. Identical values can stand only once. Counter-ions that a name gives are not always drawn. Like-named read-outs stand apart in the source and are kept apart here.
Tests used:
[1] = biological target: human GSK-3β (Homo sapiens (Human), UniProt P49841); test: Activity on human GSK-3β, substrate phosphorylation measured by LANCE technology; assay type: biochemical
Description: Activity on human GSK-3β was assessed using the following methods (according to Meijer et al., Chem. Biol., 2003-10:1255-1266).
In a first screening assay, compounds were tested in duplicate at a concentration of 10 μM.
Human recombinant enzyme GSK-3β was incubated for 90 minutes at 22° C. in the presence of compounds or vehicle in a reaction buffer containing ATP plus 100 nM unphosphorylated specific substrate peptide (Ulight-[…]-amide). Substrate phosphorylation was measured by LANCE technology (PerkinElmer, Conn., USA).
The results, reported in the following Table 4, are expressed as a percent of inhibition of control specific activity obtained in the presence of the test compounds (as % inhibition at 10 μm).
In a second assay, the same compounds were assayed at five concentrations ranging from 100 μM to 10 nM with ten-fold dilutions in duplicate. Compounds 1 to 7, 9, 11 and 13 to 26 were tested using the same first assay, compounds 8, 10, 12, and 27 to 31 were tested in another assay based on the binding and displacement of AlexaFluor® 647 labeled, ATP-competitive Kinase inhibitor scaffold using LanthaScreen™ TR-FRET technology Eu Kinase assay packet according to manufacturer's instruction (Life Technologies, Italy).
The IC50 values (concentration causing a half maximal inhibition of control specific activity), reported in table 4, were determined by non-linear regression analysis of the inhibition curves generated with mean replicate values using Hill equation curve fitting.

[2] = biological target: GSK3beta (h) (Homo sapiens (Human), UniProt P49841); test: Kinase selectivity panel; assay type: biochemical; conditions: for inhibition at 10 µM: duplicate, read-out: % inhibition of control values, GSK3beta (h); for Selectivity for GSK-3β compared to the other kinases of the panel: panel of 60 kinases, 10 μM
Summary of the method: (§1)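 Recombinant human enzyme was first combined with its peptide substrate and ATP, then incubated at 22° C for 10, 15, 30, 60 or 90 minutes. Next, substrate phosphorylation was measured by LANCE or HTRF. Finally, activity at 10 μM compound (duplicate) was expressed relative to control.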

[3] = biological target: MEK1/MAP2K1 (h) (Homo sapiens (Human), UniProt Q02750); test: Kinase selectivity panel; assay type: biochemical; conditions: duplicate, read-out: % inhibition of control values, MEK1/MAP2K1 (h)
Summary of the method: as §1

[4] = biological target: MSK1 (h) (Homo sapiens (Human), UniProt O75582); test: Kinase selectivity panel; assay type: biochemical; conditions: duplicate, read-out: % inhibition of control values, MSK1 (h)
Summary of the method: as §1

[5] = biological target: NEK1 (h) (Homo sapiens (Human), UniProt Q96PY6); test: Kinase selectivity panel; assay type: biochemical; conditions: duplicate, read-out: % inhibition of control values, NEK1 (h)
Summary of the method: as §1

[6] = biological target: mTOR kinase (h) (FRAP1) (Homo sapiens (Human), UniProt P42345); test: Kinase selectivity panel; assay type: biochemical; conditions: duplicate, read-out: % inhibition of control values, mTOR kinase (h) (FRAP1)
Summary of the method: as §1

[7] = biological target: p38gamma kinase (h) (Homo sapiens (Human), UniProt P53778); test: Kinase selectivity panel; assay type: biochemical; conditions: duplicate, read-out: % inhibition of control values, p38gamma kinase (h)
Summary of the method: as §1

[8] = biological target: smMLCK (h) (MYLK) (Homo sapiens (Human), UniProt Q15746); test: Kinase selectivity panel; assay type: biochemical; conditions: duplicate, read-out: % inhibition of control values, smMLCK (h) (MYLK)
Summary of the method: as §1

[9] = biological target: CDK2 (h) (cycA) (Homo sapiens (Human), UniProt P24941); test: Kinase selectivity panel and IC50 determination; assay type: biochemical; conditions: for inhibition at 10 µM: duplicate, read-out: % inhibition of control values, CDK2 (h) (cycA)
Description: (§2) (a) Compound 1 was tested against a panel of 60 kinases in order to assess its selectivity. The assays were chosen taking into consideration the diversity of assay families.
(§3) Human recombinant kinases were incubated in the presence of specific peptide substrates plus ATP for different times (10, 15, 30, 60 or 90 minutes) at 22° C. Phosphorylated substrate was detected by LANCE or HTRF technology (CISBIO, MA, USA).
(§4) Compound 1 was tested at 10 μM in duplicate.
(§5) The results are expressed as a percent of inhibition of control specific activity obtained in the presence of the test compound 1 and are reported in the following Table 5.
(§6) Compound 1 was also assayed to determine the IC50 values for three different kinases (PCTAIRE1, DYRK1a, and CDK2) in comparison to Gsk3β. The assay was conducted with the same method described above in test I, second assay.
(§7) (b) Compounds 7, 12, 21 and 24 were tested against the same panel of 60 kinases under the same conditions described above for compound 1.
(§8) The results are expressed as a percent of inhibition of control specific activity obtained in the presence of the test compounds and are reported in the following Table 6.

[10] = biological target: DYRK1a (h) (Homo sapiens (Human), UniProt Q13627); test: Kinase selectivity panel and IC50 determination; assay type: biochemical; conditions: for inhibition at 10 µM: duplicate, read-out: % inhibition of control values, DYRK1a (h)
Description: as §2, §3, §4, §5, §6, §7, §8

[11] = biological target: PCTAIRE1 kinase (h) (Homo sapiens (Human), UniProt Q00536); test: Kinase selectivity panel and IC50 determination; assay type: biochemical; conditions: for inhibition at 10 µM: duplicate, read-out: % inhibition of control values, PCTAIRE1 kinase (h)
Description: as §2, §3, §4, §5, §6, §7, §8

[12] = test system: AMPKalpha; test: Kinase selectivity panel; assay type: biochemical, human; conditions: 10 μM, duplicate
Description: as §2, §3, §4, §5, §7, §8

[13] = 10 μM, duplicate, human recombinant GSK-3β, 90 minutes at 22° C.
[14] = LANCE phosphorylation assay, five concentrations 100 μM to 10 nM, duplicate, read-out: IC50
[15] = Table 5A, method of test I, second assay

human GSK-3β, sequence (P49841 whole entry): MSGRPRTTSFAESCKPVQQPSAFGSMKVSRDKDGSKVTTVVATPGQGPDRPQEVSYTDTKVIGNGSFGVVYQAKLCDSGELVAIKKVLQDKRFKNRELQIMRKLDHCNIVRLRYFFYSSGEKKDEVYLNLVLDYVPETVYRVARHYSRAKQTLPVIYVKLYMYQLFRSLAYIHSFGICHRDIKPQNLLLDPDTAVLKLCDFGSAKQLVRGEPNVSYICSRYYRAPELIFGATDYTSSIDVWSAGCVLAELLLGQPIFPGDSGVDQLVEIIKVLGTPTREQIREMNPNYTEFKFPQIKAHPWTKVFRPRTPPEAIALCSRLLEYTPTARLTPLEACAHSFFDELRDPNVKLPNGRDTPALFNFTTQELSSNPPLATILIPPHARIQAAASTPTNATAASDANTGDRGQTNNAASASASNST
GSK3beta (h), sequence (P49841 whole entry): as above
PCTAIRE1 kinase (h), sequence (Q00536 whole entry): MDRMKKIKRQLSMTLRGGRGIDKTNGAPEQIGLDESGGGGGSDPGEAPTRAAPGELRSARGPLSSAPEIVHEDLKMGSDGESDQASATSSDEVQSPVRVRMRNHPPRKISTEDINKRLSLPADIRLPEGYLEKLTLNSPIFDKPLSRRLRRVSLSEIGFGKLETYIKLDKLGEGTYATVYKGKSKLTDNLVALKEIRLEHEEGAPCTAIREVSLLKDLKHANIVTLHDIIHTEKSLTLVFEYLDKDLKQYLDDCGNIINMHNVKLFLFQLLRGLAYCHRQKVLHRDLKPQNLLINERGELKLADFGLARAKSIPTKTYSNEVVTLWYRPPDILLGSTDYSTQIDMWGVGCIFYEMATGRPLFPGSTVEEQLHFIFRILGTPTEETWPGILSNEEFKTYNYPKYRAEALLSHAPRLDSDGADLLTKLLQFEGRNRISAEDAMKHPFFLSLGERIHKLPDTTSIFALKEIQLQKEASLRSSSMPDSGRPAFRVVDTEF
smMLCK (h) (MYLK), sequence (Q15746 whole entry): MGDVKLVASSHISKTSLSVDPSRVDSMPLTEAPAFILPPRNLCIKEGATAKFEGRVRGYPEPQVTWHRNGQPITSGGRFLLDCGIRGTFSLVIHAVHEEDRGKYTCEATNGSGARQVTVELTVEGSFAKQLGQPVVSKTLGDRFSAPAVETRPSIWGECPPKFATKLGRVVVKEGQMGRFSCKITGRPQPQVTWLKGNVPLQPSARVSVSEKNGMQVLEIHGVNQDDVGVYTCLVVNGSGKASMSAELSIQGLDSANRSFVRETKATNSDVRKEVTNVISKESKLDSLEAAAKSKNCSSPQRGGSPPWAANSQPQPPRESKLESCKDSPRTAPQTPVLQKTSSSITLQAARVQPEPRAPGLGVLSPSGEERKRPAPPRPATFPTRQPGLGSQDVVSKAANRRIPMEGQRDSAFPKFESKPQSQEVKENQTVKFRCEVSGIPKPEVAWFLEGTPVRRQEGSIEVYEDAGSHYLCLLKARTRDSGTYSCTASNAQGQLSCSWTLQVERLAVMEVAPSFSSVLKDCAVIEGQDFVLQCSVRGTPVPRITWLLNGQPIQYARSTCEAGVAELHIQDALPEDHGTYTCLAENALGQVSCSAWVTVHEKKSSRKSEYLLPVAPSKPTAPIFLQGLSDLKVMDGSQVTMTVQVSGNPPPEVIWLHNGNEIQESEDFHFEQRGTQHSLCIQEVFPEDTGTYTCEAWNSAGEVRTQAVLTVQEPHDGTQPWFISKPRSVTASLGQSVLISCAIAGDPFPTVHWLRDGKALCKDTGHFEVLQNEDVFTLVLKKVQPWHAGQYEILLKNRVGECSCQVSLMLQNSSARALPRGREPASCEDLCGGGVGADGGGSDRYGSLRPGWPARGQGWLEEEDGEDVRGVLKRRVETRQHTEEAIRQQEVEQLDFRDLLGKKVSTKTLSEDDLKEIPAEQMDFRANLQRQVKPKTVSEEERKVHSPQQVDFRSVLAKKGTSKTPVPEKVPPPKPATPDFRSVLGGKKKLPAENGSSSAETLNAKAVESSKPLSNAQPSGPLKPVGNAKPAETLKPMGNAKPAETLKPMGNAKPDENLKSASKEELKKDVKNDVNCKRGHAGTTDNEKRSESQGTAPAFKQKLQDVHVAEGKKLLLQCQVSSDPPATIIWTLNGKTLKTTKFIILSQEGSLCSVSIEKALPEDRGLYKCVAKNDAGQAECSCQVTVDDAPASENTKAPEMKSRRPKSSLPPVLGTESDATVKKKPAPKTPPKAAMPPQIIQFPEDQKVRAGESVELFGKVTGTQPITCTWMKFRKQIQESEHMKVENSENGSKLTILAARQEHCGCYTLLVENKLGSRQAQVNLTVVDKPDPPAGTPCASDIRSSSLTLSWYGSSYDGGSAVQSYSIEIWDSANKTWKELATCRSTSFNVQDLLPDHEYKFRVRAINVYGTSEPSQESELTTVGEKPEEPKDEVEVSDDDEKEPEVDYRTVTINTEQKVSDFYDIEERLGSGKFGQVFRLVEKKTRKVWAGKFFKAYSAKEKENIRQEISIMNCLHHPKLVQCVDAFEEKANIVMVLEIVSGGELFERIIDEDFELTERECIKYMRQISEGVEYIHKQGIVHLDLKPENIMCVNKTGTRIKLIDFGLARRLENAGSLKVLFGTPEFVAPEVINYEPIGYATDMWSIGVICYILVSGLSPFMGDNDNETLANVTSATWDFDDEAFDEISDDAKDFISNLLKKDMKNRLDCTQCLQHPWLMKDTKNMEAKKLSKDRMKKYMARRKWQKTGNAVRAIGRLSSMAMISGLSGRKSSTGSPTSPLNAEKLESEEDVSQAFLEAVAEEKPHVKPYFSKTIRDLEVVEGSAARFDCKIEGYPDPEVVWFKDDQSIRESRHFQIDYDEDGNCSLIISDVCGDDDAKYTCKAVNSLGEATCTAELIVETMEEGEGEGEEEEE
MEK1/MAP2K1 (h), sequence (Q02750 whole entry): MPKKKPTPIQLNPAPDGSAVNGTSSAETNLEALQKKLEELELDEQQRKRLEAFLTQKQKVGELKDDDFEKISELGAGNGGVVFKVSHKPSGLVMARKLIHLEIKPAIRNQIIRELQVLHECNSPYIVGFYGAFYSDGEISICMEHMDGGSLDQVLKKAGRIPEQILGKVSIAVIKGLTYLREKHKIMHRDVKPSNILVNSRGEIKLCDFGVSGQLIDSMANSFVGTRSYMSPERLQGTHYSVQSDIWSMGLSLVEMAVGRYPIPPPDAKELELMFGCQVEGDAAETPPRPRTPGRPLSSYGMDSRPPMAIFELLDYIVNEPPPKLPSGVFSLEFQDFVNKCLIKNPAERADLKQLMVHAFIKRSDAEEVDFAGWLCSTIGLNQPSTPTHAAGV
p38gamma kinase (h), sequence (P53778 whole entry): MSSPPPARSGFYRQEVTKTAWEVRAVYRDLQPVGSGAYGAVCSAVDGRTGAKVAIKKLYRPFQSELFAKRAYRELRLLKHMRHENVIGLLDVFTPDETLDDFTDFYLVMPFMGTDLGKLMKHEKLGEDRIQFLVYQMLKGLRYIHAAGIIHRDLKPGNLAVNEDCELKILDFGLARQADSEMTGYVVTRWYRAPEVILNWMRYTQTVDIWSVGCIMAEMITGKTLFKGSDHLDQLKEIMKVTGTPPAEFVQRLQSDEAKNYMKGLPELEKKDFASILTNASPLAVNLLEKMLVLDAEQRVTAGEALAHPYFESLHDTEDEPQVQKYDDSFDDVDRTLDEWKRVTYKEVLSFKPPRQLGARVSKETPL
NEK1 (h), sequence (Q96PY6 whole entry): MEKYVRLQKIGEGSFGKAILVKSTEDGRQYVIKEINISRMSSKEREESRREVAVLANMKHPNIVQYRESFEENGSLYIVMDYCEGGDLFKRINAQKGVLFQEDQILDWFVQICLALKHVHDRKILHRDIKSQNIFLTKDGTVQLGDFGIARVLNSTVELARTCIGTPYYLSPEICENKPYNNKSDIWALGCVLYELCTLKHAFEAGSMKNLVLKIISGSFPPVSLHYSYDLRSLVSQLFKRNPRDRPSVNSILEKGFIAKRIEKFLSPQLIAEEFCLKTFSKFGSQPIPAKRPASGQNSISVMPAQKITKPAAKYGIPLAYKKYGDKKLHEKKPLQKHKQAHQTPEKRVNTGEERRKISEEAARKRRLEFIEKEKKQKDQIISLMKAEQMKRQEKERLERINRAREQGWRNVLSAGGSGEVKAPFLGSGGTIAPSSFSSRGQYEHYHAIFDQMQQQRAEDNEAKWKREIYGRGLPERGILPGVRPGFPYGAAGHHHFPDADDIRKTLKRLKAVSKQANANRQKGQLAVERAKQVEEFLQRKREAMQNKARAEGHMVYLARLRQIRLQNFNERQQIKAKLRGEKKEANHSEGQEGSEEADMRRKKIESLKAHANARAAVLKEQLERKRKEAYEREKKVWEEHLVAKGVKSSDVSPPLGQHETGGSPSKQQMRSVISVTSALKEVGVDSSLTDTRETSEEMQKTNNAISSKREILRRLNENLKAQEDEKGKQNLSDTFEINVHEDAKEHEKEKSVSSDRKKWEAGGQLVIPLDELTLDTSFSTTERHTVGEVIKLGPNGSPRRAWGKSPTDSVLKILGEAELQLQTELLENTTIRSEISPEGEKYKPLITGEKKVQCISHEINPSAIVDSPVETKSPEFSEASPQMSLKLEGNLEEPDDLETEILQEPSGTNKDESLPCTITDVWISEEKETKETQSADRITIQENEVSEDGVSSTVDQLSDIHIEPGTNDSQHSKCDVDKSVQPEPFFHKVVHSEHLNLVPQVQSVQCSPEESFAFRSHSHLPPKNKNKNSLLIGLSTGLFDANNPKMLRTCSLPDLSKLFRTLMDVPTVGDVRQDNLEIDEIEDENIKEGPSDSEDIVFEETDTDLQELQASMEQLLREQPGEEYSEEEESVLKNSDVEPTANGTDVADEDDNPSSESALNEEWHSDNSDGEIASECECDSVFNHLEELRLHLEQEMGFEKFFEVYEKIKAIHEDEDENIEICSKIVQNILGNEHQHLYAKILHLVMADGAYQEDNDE

% Inhibition [10 μM] [1, 13] [%] | inhibition at 10 µM [1, 13] [%] | IC50 [1, 14] | IC50 ([1]; Table 5A, method of test I, second assay, read-out: IC50 [μM] Gsk3β) [µM] | inhibition at 10 µM [2] [%] | Selectivity for GSK-3β compared to the other kinases of the panel [2] | inhibition at 10 µM [3] [%] | inhibition at 10 µM [4] [%] | inhibition at 10 µM [5] [%] | inhibition at 10 µM [6] [%] | inhibition at 10 µM [7] [%] | inhibition at 10 µM [8] [%] | inhibition at 10 µM [9] [%] | IC50 [9, 15] [µM] | inhibition at 10 µM [10] [%] | IC50 [10, 15] [µM] | inhibition at 10 µM [11] [%] | IC50 [11, 15] [µM] | % inhibition of control values, AMPKalpha [12] [%] | Compound
94 | > 90 | < 0.6 µM and 0.35 µM | 0.35 | 92 | good selectivity profile | 25 | 8 | 1 | 0 | 2 | 0 | 27 | 36 | 63 | 2.9 | 87 | 1.5 | 13 | COc1ccc2[nH]nc(C(=O)NCC3CCN(CCc4ccc(O)cc4)CC3)c2c1 [Compound 1, N-({1-[2-(4-hydroxyphenyl)ethyl]-piperidin-4-yl}methyl)-5-methoxy-1H-indazole-3-carboxamide]
 |  | 0.4 µM |  | 94 | good selectivity profile |  |  |  |  |  |  | 36 |  | 59 |  | 1 |  | 21 | COc1ccc2[nH]nc(C(=O)NCC3CCN(Cc4ccc(C(=O)O)o4)CC3)c2c1 [Compound 24, 5-{[4-({[(5-Methoxy-1H-indazol-3-yl)carbonyl]amino}methyl)piperidin-1-yl]methyl}furan-2-carboxylic acid]

Compound | % Inhibition [10 μM] [1, 13] [%] | inhibition at 10 µM [1, 13] [%] | IC50 [1, 14] | IC50 ([1]; Table 5A, method of test I, second assay, read-out: IC50 [μM] Gsk3β) [µM] | inhibition at 10 µM [2] [%] | Selectivity for GSK-3β compared to the other kinases of the panel [2] | inhibition at 10 µM [3] [%] | inhibition at 10 µM [4] [%] | inhibition at 10 µM [5] [%] | inhibition at 10 µM [6] [%] | inhibition at 10 µM [7] [%] | inhibition at 10 µM [8] [%] | inhibition at 10 µM [9] [%] | IC50 [9, 15] [µM] | inhibition at 10 µM [10] [%] | IC50 [10, 15] [µM] | inhibition at 10 µM [11] [%] | IC50 [11, 15] [µM] | % inhibition of control values, AMPKalpha [12] [%]
COc1ccncc1-c1ccc2[nH]nc(C(=O)NCC3CCN(Cc4ccc(C(=O)O)o4)CC3)c2c1 [Compound 21, 5-({4-[({[5-(4-Methoxypyridin-3-yl)-1H-indazol-3-yl]carbonyl}amino)methyl]piperidin-1-yl}methyl)furan-2-carboxylic acid formate] |  |  | 0.01 µM |  | 96 | good affinity to GSK-3β when compared to most of other kinases of the same family |  |  |  |  |  |  | 100 |  | 99 |  | 94 |  | 70

Source: patent US9163013B2, “Use of 1H-indazole-3-carboxamide compounds as glycogen synthase kinase 3 beta inhibitors” (AZIENDE CHIMICHE RIUNITE ANGELINI FRANCESCO A.C.R.A.F. …, priority 2012, dated 2015)
